From patent US20060069039A1, “Treatment of dyskinesia” (priority 2002, published 2006)
Counter-ions that a name gives are not always drawn.

Legend:
[1] = cited from earlier work
essential tremor = settings: clinical trial; cited from earlier work
MPTP-lesioned marmosets = test: L-DOPA-induced dyskinesia and parkinsonian disability in the MPTP-lesioned marmoset model of Parkinson's disease; type: in vivo, marmosets (Callithrix jacchuis); settings: topiramate oral plus L-DOPA 15 mg/kg, n=6
Text: The MPTP-lesioned primate represents the best animal model of Parkinson's disease and L-DOPA-induced dyskinesia, the most common form of dyskinesia encountered in the clinical situation. The pathology, symptomatology and response of symptoms to treatments and production of side effects following treatment are very similar in the MPTP-lesioned primate to those seen in Parkinson's disease patients. Thus, when untreated, MPTP-lesioned primates show parkinsonian symptoms such as reduced range of movement, reduced speed of movement (bradykinesia) and an abnormal, hunched, parkinsonian posture. […] A study was performed on six adult marmosets (Callithrix jacchuis) to assess the ability of topiramate to reduce dyskinesia, specifically L-DOPA-induced dyskinesia. The marmosets were rendered parkinsonian by subcutaneous injection of 2 mg/kg MPTP for 5 consecutive days. […] The degree of activity and disability before and after MPTP treatment were assessed using a combination of scales that measure locomotor activity, mobility, bradykinesia and posture (see below). […] Behavior was assessed for 6 hours post drug administration. […] Data were collected for each one hour time period for severity of dyskinesia and were analyzed with a Wilcoxon matched pairs test (the software used was Prism version 3.0, GraphPad Software Inc). […]

SMILES | solubility in water ([1]; water) | mean improvement in tremor (essential tremor) | dyskinesia following topiramate and L-DOPA in comparison to L-DOPA alone (MPTP-lesioned marmosets; Wilcoxon P<0.05 at 0-1 h and 1-2 h, P>0.05 at 2-3 h) | effect on the anti-Parkinsonian action of L-DOPA (parkinsonian disability) (MPTP-lesioned marmosets; Wilcoxon P>0.05) | solubility in alkaline solutions ([1]; alkaline solutions containing sodium hydroxide or sodium phosphate, pH of 9 to 10) | solubility in acetone, chloroform, dimethylsulfoxide and ethanol ([1]; organic solvents) | pH of saturated solution ([1]; saturated solution)
CCN(CC)CCNC(=O)c1cc(Cl)c(N)cc1OC [Metoclopramide hydrochloride, 4-amino-5-chloro-N-[2-(diethylamino)ethyl]-2-methoxy benzamide monohydrochloride monohydrate] | freely soluble |  |  |  |  |  | 
CC1(C)O[C@@H]2[C@@H](CO[C@@]3(COS(N)(=O)=O)OC(C)(C)O[C@@H]23)O1 [Topiramate, 2,3:4,5-bis-O-(1-methylethylidene)-β-D-fructopyranose sulfamate] |  | 25% | less dyskinesia | without major effect | most soluble | freely soluble | 6.3
